# In the supplement of paper PMC10307832:
# Legend:
# Experiment in all cases: relative viability (nuclei count vs DMSO), 5 days (fraction); higher = more cells survive
# IDH-C35 + Trametinib = compound: Cc1ccccc1C(C(=O)NC1CCCCC1)N(C(=O)Cn1ccnc1C)c1cccc(F)c1 [IDH-C35] + CC(=O)Nc1cccc(-n2c(=O)n(C3CC3)c(=O)c3c(Nc4ccc(I)cc4F)n(C)c(=O)c(C)c32)c1 [Trametinib] (partner 0.02 µM)
# Method in brief: (§1)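 Nuclei were stained with Hoechst during a one-step fixation (final 0.05% Triton X-100, 1% formaldehyde, 1 ug/ml Hoechst) carried out 5 days after dosing, then counted on 4× images. The cells, lung cancer lines in 1536-well plates, had been dosed by pin tool the day after seeding with one drug alone or a fixed anchor-drug dose plus five library-drug doses (not always all listed) in √10 steps. Relative viability is the nuclei count in treated wells divided by that in vehicle wells, and each value is the median of duplicate plates.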
# IDH-C35 + Pictilisib = compound: Cc1ccccc1C(C(=O)NC1CCCCC1)N(C(=O)Cn1ccnc1C)c1cccc(F)c1 [IDH-C35] + CS(=O)(=O)N1CCN(Cc2cc3nc(-c4cccc5[nH]ncc45)nc(N4CCOCC4)c3s2)CC1 [Pictilisib] (partner 1 µM)
# Method in brief: as §1
# IDH-C35 + Foretinib = compound: Cc1ccccc1C(C(=O)NC1CCCCC1)N(C(=O)Cn1ccnc1C)c1cccc(F)c1 [IDH-C35] + COc1cc2c(Oc3ccc(NC(=O)C4(C(=O)Nc5ccc(F)cc5)CC4)cc3F)ccnc2cc1OCCCN1CCOCC1 [Foretinib] (partner 0.25 µM)
# Method in brief: as §1
# [1] = compound: CC1=C(C(=NN1)C)CC2=C(C3=C(S2)N(C(=O)N(C3=O)C)CC(C)C)C(=O)N4C[C@@H](CO4)O + Cc1nc(Nc2ncc(C(=O)Nc3c(C)cccc3Cl)s2)cc(N2CCN(CCO)CC2)n1 [Dasatinib] (partner 0.075 µM)
# Method in brief: as §1
Cell Line,relative viability (IDH-C35 + Trametinib; first compound 0.08 µM),relative viability (IDH-C35 + Trametinib; first compound 0.253 µM),relative viability (IDH-C35 + Trametinib; first compound 0.8 µM),relative viability (IDH-C35 + Trametinib; first compound 2.53 µM),relative viability (IDH-C35 + Trametinib; first compound 8 µM),relative viability (IDH-C35 + Pictilisib; first compound 0.08 µM),relative viability (IDH-C35 + Pictilisib; first compound 0.253 µM),relative viability (IDH-C35 + Pictilisib; first compound 0.8 µM),relative viability (IDH-C35 + Pictilisib; first compound 2.53 µM),relative viability (IDH-C35 + Pictilisib; first compound 8 µM),relative viability (IDH-C35 + Foretinib; first compound 0.08 µM),relative viability (IDH-C35 + Foretinib; first compound 0.253 µM),relative viability (IDH-C35 + Foretinib; first compound 0.8 µM),relative viability (IDH-C35 + Foretinib; first compound 2.53 µM),relative viability (IDH-C35 + Foretinib; first compound 8 µM),relative viability ([1]; first compound 0.0025 µM),relative viability ([1]; first compound 0.007906 µM),relative viability ([1]; first compound 0.025 µM),relative viability ([1]; first compound 0.07906 µM),relative viability ([1]; first compound 0.25 µM)
NCI-H441,0.435,0.415,0.5,0.542,0.484,0.588,0.562,0.456,0.506,0.446,0.863,0.753,0.948,1,0.888,0.65,0.59,0.679,0.411,0.583
LOU-NH91,0.804,0.785,0.781,0.742,0.803,0.528,0.548,0.516,0.496,0.531,0.949,0.946,0.92,0.918,0.913,0.61,0.588,0.55,0.54,0.619
NCI-H3122,0.22,0.249,0.21,0.236,0.212,0.628,0.572,0.592,0.611,0.598,0.919,0.984,0.915,0.928,0.958,0.988,1.03,0.663,0.775,0.889
NCI-H460,0.165,0.133,0.176,0.165,0.0866,0.43,0.438,0.325,0.326,0.297,1.02,1.01,1.02,0.989,0.904,0.552,0.675,0.532,0.517,0.494
NCI-H650,1.03,0.935,0.861,,0.914,0.926,0.863,0.847,,0.851,1.03,1.04,1.05,,0.981,0.493,0.548,0.365,0.514,0.443
NCI-H661,0.592,0.575,0.548,0.557,0.561,0.346,0.446,0.404,0.534,0.427,1.03,0.964,0.981,0.988,1.03,0.907,0.833,0.906,0.881,0.872
NCI-H1793,0.42,0.45,0.374,0.472,0.401,0.265,0.336,0.364,0.371,0.256,0.753,0.81,0.724,,0.624,0.428,0.375,0.39,0.362,0.377
NCI-H1734,0.656,0.811,0.603,0.661,0.616,0.503,0.499,0.427,0.414,0.432,0.799,0.913,0.936,0.796,0.774,0.504,0.543,0.453,0.484,0.473
